Structures can show the parent of a compound that is named as a salt.

We go through 1 compound from patent US12605362B2, “Eletriptan hydrobromide for treatment of spinal cord injury and improvement of locomotor function” (TECHNOPHAGE, INVESTIGAÇÃO E DESENVOLVIMENTO EM …, priority 2020, dated 2026).

For assay [1], the system named is transected zebrafish larvae. The assay can be described thus: larval zebrafish phenotypic-based screen for SCI (transected spinal cord, DanioVision swimming activity). The assay is classed as in vivo. An excerpt: Tg(mnx1:GFP^m12), abbreviated as hb9:GFP were maintained and bred in constant conditions, by following standard guidelines for fish care and maintenance protocols^27. Zebrafish larvae were used in the phenotypic-based screen for SCI.
A larval zebrafish phenotypic-based screen was used to screen a pool of compounds from a small molecule library (PHARMAKON 1600-MicroSource Discovery Systems, Inc., USA) as previously described by Diana et al. 201928. Briefly, zebrafish larvae were allowed to develop in EM with 1 μM methylene blue until 5 days-post-fertilization (dpf). At 5dpf, zebrafish larvae spinal cords were transected at the level of the anal pore (Diana et al. 2019). At 1 dpi, larvae were randomly distributed into 6-well plates containing EM+10 mM HEPES and exposed during 24 hours to the chemical compounds added to the medium. At 2 dpi, behavioural assessment was performed using DanioVision™ (Noldus Information Technology, the Netherlands) an automated tracking system for zebrafish larvae. Larvae were allowed to freely swim in a 96-well plate (1 larva/well) with EM+10 mM HEPES and their swimming activity was tracked for […], under 10 minutes light-dark cycles (i.e. 3 light cycles and 3 dark cycles). The acquired track data was analysed using the Ethovision X.T. 10 software (Noldus, Wageningen, Netherlands) and only swimming activity obtained in the 3 dark periods were analysed^29.
To accelerate the discover of potential new therapeutics for spinal cord injury (SCI) we used a phenotypic assay that enabled the screening of a pool of chemical compounds from an FDA approved small molecules library. In this phenotypic-based screen, we blindly administered the chemical compounds (25 μM) at 1 day-post-injury (dpi) and we performed the behavioural assessment 24 hours later (i.e. at 2 dpi) as previously described by Chapela D. et al. 2019. The small molecules were first blindly selected, if there was a statistically significant improvement of total distance moved and/or turn angle parameters, which were chosen as indicators of locomotor function. […]

Another assay addresses T1, 5-HTIF (Homo sapiens, UniProt P30939).
T1 sequence (P30939 1-366): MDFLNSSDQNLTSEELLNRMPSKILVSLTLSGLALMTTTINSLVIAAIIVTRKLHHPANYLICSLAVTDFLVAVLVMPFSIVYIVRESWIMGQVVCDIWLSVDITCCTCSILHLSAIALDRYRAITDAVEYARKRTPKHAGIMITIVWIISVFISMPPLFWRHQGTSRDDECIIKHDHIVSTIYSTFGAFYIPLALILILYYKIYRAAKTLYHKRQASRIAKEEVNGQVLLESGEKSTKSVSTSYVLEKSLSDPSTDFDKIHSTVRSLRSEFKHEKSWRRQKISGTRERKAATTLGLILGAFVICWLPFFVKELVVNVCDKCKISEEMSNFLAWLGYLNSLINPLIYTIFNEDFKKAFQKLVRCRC
The note with it: serotonin receptor agonist; cited from earlier work.

Assay [2] concerns mice with T9 contusion type of injury. As to the kind of experiment: fibrotic scar quantification (PDGFRβ / GFAP immunohistochemistry). In kind it is in vivo. The settings on record: 42 dpi, vs Vehicle. The method, then: A moderate-severe contusion-type of injury was performed on adult C57BL/6 female mice (10-12 weeks) with an Infinite Horizon Impactor (PSI)^30. All surgeries were performed under aseptic conditions. Briefly, under deep anesthesia with Ketamine and Xylazine (120 mg/kg and 16 mg/kg respectively, i.p.) mice received a dorsal laminectomy at the level of 9th thoracic vertebra (T9). After securing the lateral processes of the 8th thoracic vertebra (T8) and 10th thoracic vertebra (T10) with a stainless-steel impactor tip, a controlled force-defined impact at 75 kdyne was delivered to the exposed spinal cord^28,30. Then, muscle and skin were closed with 4.0 polyglycolic acid (PGA) absorbable sutures (Safil, G1048213). In this study, mice were excluded when the actual displacement value was outside the interval 500-700 μm or if the actual force after impact was >2SD 75 Kdyne. Immediately after injury, mice were injected subcutaneously with 0.5 ml of sterile saline and then daily for 5 days. […] Weight was monitored daily until 15 days-post-injury (dpi) and then weekly for the duration of the study and a high caloric pellet (Supreme Mini-Treats™ S05478 and S05472) was provided as a dietary supplement since a 10% weight loss was typically observed in this SCI model upon injury. […]
For immunohistochemistry in sections, OCT was removed from the cryosections using PBS (30 minutes). […] For activated microglia quantification, sections were counterstained with DAPI. […]
One set of sections was stained with anti-PDGFRβ and anti-GFAP to outline the border of the fibrotic scar area. Z-stack compositions were acquired in a motorized inverted widefield fluorescence microscope (Zeiss Cell Observer, Carl Zeiss MicroImaging) with 20× magnification. Fiji software was used to manually outline and calculate the PDGFRβ^+ area and total cross-sectional area to thereafter quantify the percentage of fibrotic scar area per total cross-sectional area. The rostral and caudal extents of fibrotic lesion were determined by inspection. […]

The mark [3] stands for this setting: 25 μM from 1 dpi, assessed at 2 dpi, dark periods, vs vehicle.

Regarding `CN1CCC[C@@H]1Cc1c[nH]c2ccc(CCS(=O)(=O)c3ccccc3)cc12` [Eletriptan Hbr, Eletriptan Hydrobromide], in assay [1] (setting [3]), the total distance moved entry is on record as “rescues motor impairments” and the turn angle result is “rescues motor impairments”. For the same compound, the locomotor impairments result in assay [1] (25 μM in medium from 1 dpi for 24 hours, behavioural assessment at 2 dpi, vs vehicle treated injured larvae) is on record as “rescue locomotor impairments”. Also, the affinity entry at 5-HTIF was “high affinity”. In assay [2], the “extension of PDGFRβ+ lesion core” value was “no statistically significant differences” and the “extension of increased levels of PDGFRβ+ immunostaining” value is on record as “statistically significant reduction”. For the same compound, in assay [2] (at lesion epicentre), the “area of fibrotic lesion core” value was “no statistically significant differences”.
